Consider 13 compounds from patent US11866720B2, “Transgenic or non-transgenic plants with mutated protoporphyrinogen oxidase having increased tolerance to herbicides” (priority 2013, dated 2024).

What all share (assay): biochemical
Settings in all cases: IC50 (M)

The target in test [1] is T1, recombinant wildtype and mutated PPO (Amaranthus PPO2: PPX2L_WC SEQ ID NO 2, PPX2L_AC SEQ ID NO 4, dG210 SEQ ID NO 6 & 8) (Amaranthus tuberculatus, UniProt Q0NZW9, D133A/F420I/R128Y).
T1 sequence (Q0NZW9 1-534 R128Y/D133A/F420I): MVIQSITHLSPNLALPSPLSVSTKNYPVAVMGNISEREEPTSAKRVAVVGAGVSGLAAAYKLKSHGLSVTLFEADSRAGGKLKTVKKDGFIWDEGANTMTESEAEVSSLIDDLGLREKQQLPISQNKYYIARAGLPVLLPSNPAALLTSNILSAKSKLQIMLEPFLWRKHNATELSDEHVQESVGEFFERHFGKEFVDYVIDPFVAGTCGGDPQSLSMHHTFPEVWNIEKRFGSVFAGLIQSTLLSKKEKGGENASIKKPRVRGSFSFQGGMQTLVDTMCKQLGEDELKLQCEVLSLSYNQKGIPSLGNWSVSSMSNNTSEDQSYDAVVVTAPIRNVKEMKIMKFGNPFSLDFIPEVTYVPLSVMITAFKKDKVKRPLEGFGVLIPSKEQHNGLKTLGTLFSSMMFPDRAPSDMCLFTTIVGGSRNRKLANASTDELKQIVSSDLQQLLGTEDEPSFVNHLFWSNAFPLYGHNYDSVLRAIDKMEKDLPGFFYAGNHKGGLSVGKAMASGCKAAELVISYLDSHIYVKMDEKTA

Test [2] concerns the target T2, recombinant wildtype and mutated PPO (Amaranthus PPO2: PPX2L_WC SEQ ID NO 2, PPX2L_AC SEQ ID NO 4, dG210 SEQ ID NO 6 & 8) (Amaranthus tuberculatus, UniProt Q0NZW9, D133A/F420L/R128I).
T2 sequence (Q0NZW9 1-534 R128I/D133A/F420L): T1 sequence (Q0NZW9 1-534 R128Y/D133A/F420I) with Y128I, I420L

In test [3] the target is recombinant wildtype and mutated PPO (Amaranthus PPO2: PPX2L_WC SEQ ID NO 2, PPX2L_AC SEQ ID NO 4, dG210 SEQ ID NO 6 & 8) (Amaranthus tuberculatus, UniProt Q0NZW9, D133A/F420M/R128C).
For test [4], the target named is recombinant wildtype and mutated PPO (Amaranthus PPO2: PPX2L_WC SEQ ID NO 2, PPX2L_AC SEQ ID NO 4, dG210 SEQ ID NO 6 & 8) (Amaranthus tuberculatus, UniProt Q0NZW9, D133A/F420M/R128H).
In test [5] the target is recombinant wildtype and mutated PPO (Amaranthus PPO2: PPX2L_WC SEQ ID NO 2, PPX2L_AC SEQ ID NO 4, dG210 SEQ ID NO 6 & 8) (Amaranthus tuberculatus, UniProt Q0NZW9, D133A/F420M/R128M).
For test [6], the target named is T3, recombinant wildtype and mutated PPO (Amaranthus PPO2: PPX2L_WC SEQ ID NO 2, PPX2L_AC SEQ ID NO 4, dG210 SEQ ID NO 6 & 8) (Amaranthus tuberculatus, UniProt Q0NZW9, D133A/F420M/R128N).
T3 sequence (Q0NZW9 1-534 R128N/D133A/F420M): T1 sequence (Q0NZW9 1-534 R128Y/D133A/F420I) with Y128N, I420M

Test [7] addresses recombinant wildtype and mutated PPO (Amaranthus PPO2: PPX2L_WC SEQ ID NO 2, PPX2L_AC SEQ ID NO 4, dG210 SEQ ID NO 6 & 8) (Amaranthus tuberculatus, UniProt Q0NZW9, D133A/F420M/R128V).
The target of test [8] is recombinant wildtype and mutated PPO (Amaranthus PPO2: PPX2L_WC SEQ ID NO 2, PPX2L_AC SEQ ID NO 4, dG210 SEQ ID NO 6 & 8) (Amaranthus tuberculatus, UniProt Q0NZW9, D133A/F420V/R128C).

Substitutions are numbered along the chain they refer to. Where “and” joins values, the source holds several entries; their conditions need not be identical. Equal values may be shown once.

Broadly, the IC50 is the concentration that inhibits the measured activity by half.

Chain of recombinant wildtype and mutated PPO (Amaranthus PPO2: PPX2L_WC SEQ ID NO 2, PPX2L_AC SEQ ID NO 4, dG210 SEQ ID NO 6 & 8) (Amaranthus tuberculatus, UniProt Q0NZW9, D133A/F420M/R128C) (Q0NZW9 1-534 R128C/D133A/F420M): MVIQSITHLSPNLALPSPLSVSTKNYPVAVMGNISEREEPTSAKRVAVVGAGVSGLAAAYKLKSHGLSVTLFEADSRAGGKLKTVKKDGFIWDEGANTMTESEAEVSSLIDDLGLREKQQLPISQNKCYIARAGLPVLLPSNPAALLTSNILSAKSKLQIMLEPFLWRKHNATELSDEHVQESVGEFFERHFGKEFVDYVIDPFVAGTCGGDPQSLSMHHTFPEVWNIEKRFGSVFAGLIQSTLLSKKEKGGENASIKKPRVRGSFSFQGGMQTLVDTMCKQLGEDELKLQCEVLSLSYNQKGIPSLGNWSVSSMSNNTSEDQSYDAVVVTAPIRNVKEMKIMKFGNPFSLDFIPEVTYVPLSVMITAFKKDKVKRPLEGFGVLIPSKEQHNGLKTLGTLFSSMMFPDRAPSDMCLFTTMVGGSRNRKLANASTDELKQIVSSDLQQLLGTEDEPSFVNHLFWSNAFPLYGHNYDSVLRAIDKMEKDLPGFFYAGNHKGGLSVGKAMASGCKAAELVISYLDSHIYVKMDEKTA
Chain of recombinant wildtype and mutated PPO (Amaranthus PPO2: PPX2L_WC SEQ ID NO 2, PPX2L_AC SEQ ID NO 4, dG210 SEQ ID NO 6 & 8) (Amaranthus tuberculatus, UniProt Q0NZW9, D133A/F420M/R128M) (Q0NZW9 1-534 R128M/D133A/F420M): as the sequence (Q0NZW9 1-534 R128C/D133A/F420M) above, with C128M counted along it
Chain of recombinant wildtype and mutated PPO (Amaranthus PPO2: PPX2L_WC SEQ ID NO 2, PPX2L_AC SEQ ID NO 4, dG210 SEQ ID NO 6 & 8) (Amaranthus tuberculatus, UniProt Q0NZW9, D133A/F420M/R128V) (Q0NZW9 1-534 R128V/D133A/F420M): as the sequence (Q0NZW9 1-534 R128C/D133A/F420M) above, with C128V counted along it
Chain of recombinant wildtype and mutated PPO (Amaranthus PPO2: PPX2L_WC SEQ ID NO 2, PPX2L_AC SEQ ID NO 4, dG210 SEQ ID NO 6 & 8) (Amaranthus tuberculatus, UniProt Q0NZW9, D133A/F420M/R128H) (Q0NZW9 1-534 R128H/D133A/F420M): as the sequence (Q0NZW9 1-534 R128C/D133A/F420M) above, with C128H counted along it
Chain of recombinant wildtype and mutated PPO (Amaranthus PPO2: PPX2L_WC SEQ ID NO 2, PPX2L_AC SEQ ID NO 4, dG210 SEQ ID NO 6 & 8) (Amaranthus tuberculatus, UniProt Q0NZW9, D133A/F420V/R128C) (Q0NZW9 1-534 R128C/D133A/F420V): as the sequence (Q0NZW9 1-534 R128C/D133A/F420M) above, with M420V counted along it

Turning to `CS(=O)(=O)NC(=O)c1cc(Oc2ccc(C(F)(F)F)cc2Cl)ccc1[N+](=O)[O-]` [Fomesafen, fomesafen], the concentration for half-maximal inhibition (IC50) was 2.15e-05 M in test [1]; no less than 1e-05 M in test [2]; 1.1e-05 M in test [3]; 2.91e-06 M in test [4]; no less than 1e-05 M in test [5]; 1.07e-05 M in test [6]. Besides, the values for the half-maximal inhibitory concentration (IC50) in test [7] and in test [8] were no less than 1e-05 M and 2.36e-06 M, respectively.

Take `CCOC(=O)C(Cl)Cc1cc(-n2nc(C)n(C(F)F)c2=O)c(F)cc1Cl` (centres unmarked) [CARFENTRAZONE-ETHYL]: the IC50 in test [1] was 2.82e-07 M; in test [2], 1.61e-07 M; in test [3] it was 2.99e-08 M; in test [4] it was 1.21e-07 M; in test [5], 7.86e-08 M; in test [6], 1.88e-07 M. Moreover, the IC50 turned out to be 2.29e-08 M in test [7] and 3.96e-07 M in test [8].

Regarding `C#CCN1C(=O)C(F)(F)Oc2cc(F)c(-n3c(=O)n(C)c(=S)n(C)c3=O)cc21`, the IC50 in test [1] was 4.82e-07 M and 2.63e-06 M; in test [2] it was 4.05e-07 M and 2.45e-07 M; in test [3], 2.53e-08 M and 2.33e-08 M; in test [4], 2.64e-08 M and 2.13e-08 M; in test [5], 7.69e-08 M and 7.07e-08 M and 4.84e-08 M; in test [6], 7.12e-08 M and 4.97e-08 M. For the same compound, the IC50 is 6.5e-08 M and 4.86e-08 M in test [7]; 1.66e-07 M and 2.66e-07 M in test [8].

For the compound `O=C(O)c1cc(Oc2ccc(C(F)(F)F)cc2Cl)ccc1[N+](=O)[O-]` [ACIFLUORFEN], the IC50 in test [1], in test [2], in test [3], in test [4], in test [5] and in test [6] was no less than 1e-05 M throughout. In addition, the half-inhibitory concentration (IC50) was no less than 1e-05 M in test [7] and 6.72e-06 M in test [8].

For `COC(Oc1ccccc1Oc1cc(-n2c(=O)cc(C(F)(F)F)n(C)c2=O)c(F)cc1Cl)C(=O)OC1CCCCC1` (centres unmarked), the IC50 was 6.82e-07 M in test [1]; 1.07e-07 M in test [2]; 2.98e-08 M in test [3]; 2.97e-07 M in test [4]; 3.22e-08 M in test [5]; 1.48e-07 M in test [6]. For the same compound, the values for the 50% inhibitory concentration (IC50) in test [7] and in test [8] were 1.49e-08 M and 1.01e-07 M, respectively.

Take `C#CCN1C(=O)C(F)(F)Oc2cc(F)c(N3C(=O)C4=C(CCCC4)C3=O)cc21`: the IC50 is no less than 1e-05 M in test [1]; no less than 1e-05 M in test [2]; 3.57e-06 M in test [3]; 3.07e-06 M in test [4]; no less than 1e-05 M in test [5]; no less than 1e-05 M in test [6]. Moreover, the IC50 was found to be 3.11e-06 M in test [7] and 3.7e-06 M in test [8].

Turning to `COC(=O)C(OC)Oc1ccccc1Oc1cc(-n2c(=O)cc(C(F)(F)F)n(C)c2=O)c(F)cc1Cl` (centres unmarked), the IC50 was 2.86e-08 M in test [1]; 7.13e-08 M in test [2]; 1.16e-08 M in test [3]; 1.76e-08 M in test [4]; 1.62e-08 M in test [5]; 1.2e-07 M in test [6]. Moreover, the IC50 in test [7] came to 1.49e-08 M; in test [8] it was 1.16e-08 M.

Turning to `C#CCN1C(=O)COc2cc(F)c(N3C(=O)C4=C(CCCC4)C3=O)cc21` [Flumioxazin, flumioxazin], the IC50 in test [1] was no less than 1e-05 M; in test [2], no less than 1e-05 M; in test [3], no less than 1e-05 M; in test [4], no less than 1e-05 M; in test [5] it was no less than 1e-05 M; in test [6], 6.15e-06 M. The IC50 is no less than 1e-05 M in test [7] and 7.28e-06 M in test [8].

On to `CCOc1cc(Oc2ccc(C(F)(F)F)cc2Cl)ccc1[N+](=O)[O-]` [OXIFLUORFEN], for which the IC50 was found to be 1.17e-06 M in test [1]; 4.21e-06 M in test [2]; 4.16e-07 M in test [3]; 3.68e-07 M in test [4]; 7.36e-07 M in test [5]; 3.91e-07 M in test [6]. The IC50 in test [7] was found to be 1.05e-06 M; in test [8], 6.52e-08 M.

In the case of `CCOC(=O)COc1ncccc1Oc1cc(-n2c(=O)cc(C(F)(F)F)n(C)c2=O)c(F)cc1Cl` [A.13, ethyl [3-[2-chloro-4-fluoro-5-(1-methyl-6-trifluoromethyl-2,4-dioxo-1,2,3,4-tetrahydropyrimidin-3-yl)phenoxy]-2-pyridyloxy]acetate], the IC50 in test [1] turned out to be 4.64e-07 M; in test [2] it was 2.01e-07 M; in test [3], 6.95e-08 M; in test [4] it was 4.18e-08 M; in test [5], 4.83e-08 M; in test [6], 1.92e-07 M. Also, the IC50 in test [7] was 3.58e-08 M; in test [8], 1.24e-07 M.

For `C=CCOC(=O)C(C)(C)OC(=O)c1cc(-n2c(=O)cc(C(F)(F)F)n(C)c2=O)ccc1Cl` [BUTAFENACIL], the IC50 in test [1] came out at 5.47e-08 M; in test [2], 8.02e-08 M; in test [3], 2.31e-08 M; in test [4], 1.28e-08 M; in test [5], 4.38e-08 M; in test [6], 2.84e-08 M. The results for the IC50 in test [7] and in test [8] were 1.05e-08 M and 6.69e-08 M, respectively.

`C#CCN1C(=O)C(F)(F)Oc2cc(F)c(-n3c(=O)cc(C(F)(F)F)n(C)c3=O)cc21`: the IC50 in test [1] is 4.46e-07 M; in test [2], 2.69e-07 M; in test [3], 1.11e-08 M; in test [4] it was 1.05e-08 M; in test [5], 4.94e-08 M; in test [6], 5.94e-08 M. The IC50 came to 4.65e-08 M in test [7] and 2.6e-08 M in test [8].

As for `CCOC(=O)C(C)OC(=O)c1cc(Oc2ccc(C(F)(F)F)cc2Cl)ccc1[N+](=O)[O-]` (centres unmarked) [Lactofen, lactofen], the IC50 amounted to 4.8e-08 M in test [1]; 1.3e-07 M in test [2]; 6.39e-08 M in test [3]; 6.13e-08 M in test [4]; 1.31e-07 M in test [5]; 1.67e-07 M in test [6]. Further, the IC50 in test [7] stood at 9.41e-08 M; in test [8], 1.5e-08 M.
